Like-named read-outs stand apart in the source and are kept apart here. Peptide text beside a SMILES is read from it.
How the values were obtained:
KDM7B Dual (PHD+JmjC) = target: T1, KDM7B Dual (PHD+JmjC) (Homo sapiens, UniProt Q9UPP1); assay: BLI binding; design: key to BLI Screening, KDM7B Dual: (+) = binding; (-) = no binding; (NS) = non-specific
T1 construct: Dual domain = PHD+JmjC; made in house
Description: Figure S2. BLI for KDM7 proteins with cyclic peptides.
BLI traces for b inding to KDM7 protein domains immobilised by C-terminal His -tag on Ni -NTA
biosensors, against cyclic peptides. Response trace for each peptide concentration is represented by
a different colour, with the fitted curves overlaid in black.
concentration plotted, with 2-fold dilutions thereafter. Dual domain = PHD+JmjC. […]
against KDM7 and other protein domains. t1/2 = half life (0.693 / Koff)
(§1) (1 picture or pasted object on this page, not shown here)

HisTrx-KDM7B PHD = target: T2, HisTrx-KDM7B PHD (Homo sapiens, UniProt Q9UPP1); assay: ITC binding
T2 construct: KDM7B 1-66; made in house
T2 sequence (Q9UPP1 1-66 isoform Q9UPP1-2): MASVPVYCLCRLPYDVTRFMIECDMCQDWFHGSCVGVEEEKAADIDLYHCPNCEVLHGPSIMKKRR
Experimental: Figure S8. ITC titration curves for His-Trx-KDM7B PHD.
Top panels are raw heat of injection, bottom panels are normalised data fitted to 1:1 binding model.
His-Trx = His6+thioredoxin. For […]
results of fit and conditions see Figure S10. […]
Figure S10. ITC results: Tabulated values from 1:1 binding model and conditions ITC buffer = 50 mM HEPES, 100 mM NaCl, pH 7.4, 0.2 µm filtered), at 25 °C. Dual = PHD+JmjC. HisTrx = His 6+thioredoxin tag, GST = glutathione S -transferase tag, ZB = Z -basic tag. Syringe contained peptide solution in buffer. Cell contained protein solution in buffer.
as §1

KDM7A PHD+JmjC = KDM7A PHD+JmjC (Homo sapiens, UniProt Q6ZMT4); assay: AlphaScreen displacement of H3 1-21K4me3-Bt; format: binding; details: average of two independent experiments
Description: (§2) The functional effect of OC9 on the PHD-finger was further assessed using an AlphaScreen (AS) based proximity assay. […]

KDM7C PHD = target: T3, KDM7C PHD (Homo sapiens, UniProt O75151); assay: AlphaScreen displacement of H3 1-21K4me3-Bt; format: binding; details: average of two independent experiments
T3 construct: KDM7C 1-67; made in house
T3 sequence (O75151 1-67): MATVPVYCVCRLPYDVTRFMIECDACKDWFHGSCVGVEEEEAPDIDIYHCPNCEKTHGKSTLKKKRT
Description: as §2

KDM7B PHD = target: T4, KDM7B PHD (Homo sapiens, UniProt Q9UPP1); assay: AlphaScreen displacement of H3 1-21K4me3-Bt; format: binding; details: average of at least two independent experiments; read-out: AlphaScreen displacement IC50, KDM7B PHD
T4 construct: KDM7B 1-66; made in house
T4 sequence (Q9UPP1 1-66 isoform Q9UPP1-2): T2 sequence (Q9UPP1 1-66 isoform Q9UPP1-2)
Description: as §2

T1 sequence (Q9UPP1 37-483 limits assumed): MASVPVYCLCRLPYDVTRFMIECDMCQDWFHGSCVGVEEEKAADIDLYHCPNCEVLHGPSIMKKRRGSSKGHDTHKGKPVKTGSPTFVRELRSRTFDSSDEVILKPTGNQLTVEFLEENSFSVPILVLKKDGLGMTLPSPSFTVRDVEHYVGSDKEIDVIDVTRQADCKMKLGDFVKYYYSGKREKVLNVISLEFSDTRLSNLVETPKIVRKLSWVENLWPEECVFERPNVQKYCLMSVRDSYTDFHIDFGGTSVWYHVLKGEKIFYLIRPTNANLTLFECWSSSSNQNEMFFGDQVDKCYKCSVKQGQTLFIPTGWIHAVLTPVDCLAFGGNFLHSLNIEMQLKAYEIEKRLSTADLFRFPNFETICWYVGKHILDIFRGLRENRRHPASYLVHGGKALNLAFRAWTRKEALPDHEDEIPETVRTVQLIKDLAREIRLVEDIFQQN
KDM7A PHD+JmjC, sequence (Q6ZMT4 38-386 limits assumed): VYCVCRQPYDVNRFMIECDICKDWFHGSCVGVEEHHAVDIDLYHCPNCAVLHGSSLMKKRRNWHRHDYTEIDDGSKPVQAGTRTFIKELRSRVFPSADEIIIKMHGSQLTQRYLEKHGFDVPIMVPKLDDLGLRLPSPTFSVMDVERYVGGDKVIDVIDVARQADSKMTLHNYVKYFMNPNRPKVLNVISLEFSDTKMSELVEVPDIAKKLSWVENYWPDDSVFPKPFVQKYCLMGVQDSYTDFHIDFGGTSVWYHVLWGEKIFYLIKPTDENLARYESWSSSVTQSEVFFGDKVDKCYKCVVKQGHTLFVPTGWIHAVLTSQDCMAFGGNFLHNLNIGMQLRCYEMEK

CC(C)C[C@@H]1NC(=O)[C@H](Cc2ccc(O)cc2)NC(=O)[C@H](Cc2ccc(O)cc2)NC(=O)CSC[C@@H](C(N)=O)NC(=O)[C@H]([C@@H](C)O)NC(=O)[C@H](CCCNC(=N)N)NC(=O)[C@H](Cc2ccccc2)NC(=O)[C@H](C(C)C)NC(=O)[C@H](CO)NC(=O)[C@@H]2CCCN2C(=O)[C@H](Cc2ccc(O)cc2)NC(=O)[C@@H]2CCCN2C(=O)[C@H](Cc2c[nH]cn2)NC(=O)[C@H]([C@@H](C)O)NC1=O [OC9] (HELM PEPTIDE1{[O=C(C[*:3])[*:2]].Y.Y.L.T.H.P.Y.P.S.V.F.R.T.C.[am]}$PEPTIDE1,PEPTIDE1,1:R3-15:R3$$$V2.0)
koff (KDM7B Dual (PHD+JmjC); 1:1 binding model): 0.00413 ± 3e-05 s⁻¹
kon (KDM7B Dual (PHD+JmjC); 1:1 binding model): 691000 ± 7000 M⁻¹ s⁻¹
Kd (KDM7B Dual (PHD+JmjC); His-tagged protein on Ni-NTA biosensors, 1:1 binding model): 5.98 nM
BLI Screening, KDM7B Dual (KDM7B Dual (PHD+JmjC); qualitative assessment of binding by BLI): +
Kd (HisTrx-KDM7B PHD; 50 mM HEPES, 100 mM NaCl, pH 7.4, 25 °C, 1:1 binding model, His6+thioredoxin tag, read-out: ITC KD, HisTrx-KDM7B PHD): 8.27 nM
ITC ΔH, HisTrx-KDM7B PHD (HisTrx-KDM7B PHD; 25 °C): -60.0 ± 1.3 kJ mol -1
Kd (HisTrx-KDM7B PHD; read-out: ITC pKD, HisTrx-KDM7B PHD (converted)): 7.94 nM
ITC N, HisTrx-KDM7B PHD (HisTrx-KDM7B PHD; stoichiometry): 0.86 ± 0.01
IC50 (KDM7A PHD+JmjC): 132 nM
IC50 (KDM7C PHD): 26 nM
IC50 (KDM7B PHD): 32 nM
